What was measured:
brittle stars = test: Incubation of brittle stars in gas-equilibrated seawater, survival by motile response; type: in vivo; settings: transfer to aerobic conditions
Excerpt: (§1) The purpose of the experiments described here was to obtain data on the effects of “inert gas” on marine organisms. “Inert gas” of a mixture hereinafter called trimix—a commercially available gas mixture of […], 12% CO2 and 84% nitrogen resembling the gas generated by commercially used marine “inert gas generators”—was used. Both adult and young adult marine organisms were chosen for two reasons: a) to make the size of specimens amenable for the experimental setup and b) to raise the significance of possible effects since adults of a species are typically more tolerant of environmental changes than juveniles or larvae. All marine organisms were collected fresh from the coastal waters off La Jolla, Calif. and used immediately. They are, in that particular environment, not necessarily nuisance organisms. Some of the organisms might be so considered, however, should they be introduced into other waters. […]
(§2) The schematic of an experimental setup in validation of the principles and methods of the present invention (and also, a miniature scale, the gaseous exchange system) is shown in FIG. 1. […] The oxygen concentrations were measured after the initial bubbling period using a Strathkelvin oxygen electrode with a Cameron instruments OM-200 oxygen analyzer. Values of pH were determined using a combination electrode and a Radiometer pH meter. […]

[1] = test system: plankton sample (mainly copepods); test: Incubation of plankton sample (mainly copepods) in gas-equilibrated seawater; type: in vivo
Excerpt: as §1, §2

barnacles = test: Incubation of barnacles in gas-equilibrated seawater, survival by withdrawal of feet when disturbed; type: in vivo; settings: 1.5 l seawater, 22° C., equilibrated with gas
Excerpt: as §1, §2

[2] = Oxygen concentration and pH of seawater bubbled with the gas; type: physicochemical
Description: The schematic of an experimental setup in validation of the principles and methods of the present invention (and also, a miniature scale, the gaseous exchange system) is shown in FIG. 1. Three parallel incubations were done for each experiment. Several organisms were incubated in 1.5 l of seawater at 22° C. in large Erlenmeyer flasks. Each incubation was equilibrated with the respective gas using aquarium stones before any organisms were introduced. The aerobic control was bubbled from an aquarium pump for approximately 15 min and left open to the atmosphere after addition of specimens. An anaerobic incubation was bubbled with 99.998% nitrogen for 15 min. After introduction of the organisms, the bubbling was continued for another 10 min and then the container was closed with a rubber stopper or the bubbling was continued. The incubation in […] treated similarly except that the gas mix was used instead of nitrogen. The oxygen concentrations were measured after the initial bubbling period using a Strathkelvin oxygen electrode with a Cameron instruments OM-200 oxygen analyzer. Values of pH were determined using a combination electrode and a Radiometer pH meter.

mussels = test: Incubation of mussels in gas-equilibrated seawater, survival by shell closing on tactile stimulus; type: in vivo; settings: after 95 min incubation
Excerpt: as §1, §2

- oxygen concentration of the incubation ([2]; measured after the initial bubbling period, oxygen electrode): non-detectable
- pH value of the seawater bubbled with the gas ([2]; seawater, normal pH 8, trimix value after initial 10 min of vigorous bubbling): 8
SMILES: N#N [nitrogen]
- movement of brittle stars after transfer into aerated water (brittle stars): started to move again
- time after which plankton (mainly copepods) stopped moving ([1]; 1.5 l seawater, 22° C., equilibrated with gas): 15 min
- revival of plankton (mainly copepods) ([1]; after they stopped moving): could not be revived
- state of barnacles after incubation (withdrawal of feet when disturbed) (barnacles): still behaved normally
- response of mussels to tactile stimuli (closing shells) (mussels): still responded to tactile stimuli by closing their shells
- state of mussel shells (mussels): open

Source: patent publication US6761123B2, “INFUSION OF COMBUSTION GASES INTO BALLAST WATER PREFERABLY UNDER LESS THAN ATMOSPHERIC PRESSURE TO SYNERGISTICALLY KILL HARMFUL AQUATIC NUISANCE SPECIES BY SIMULTANEOUS HYPERCAPNIA, HYPOXIA AND ACIDIC PH LEVEL” (MH Systems, priority 2001, dated 2004)
